One compound from US6469027B1, “N-methyl-D-aspartate (NMDA) receptor blockers for the prevention of atherosclerosis” (The Board of Regents of the University of Nebraska, priority 1996, dated 2002) can be followed below.

Each structure is given as a SMILES string.

In one assay the test system is PDGG-AA. Put plainly: PDGG-AA release from TA-VSMCs. The note with it: 0.2 mM. The class given is cell-based.
A further assay relates to Rabbit aortic cells. Put plainly: Mitogenesis in rabbit aortic cells. It is filed as cell-based. As for the experimental part:
For each of the following experiments, aortic smooth muscle cells were obtained from 2-3 lb. New Zealand rabbits; these cells were cultured as described above, and evaluated for their responses to Hcy.

In a further assay the test system is N-VSMC. Put plainly: Cell proliferation (cell number) of N-VSMC cultures. It is filed as cell-based, chicken. As to conditions: 100 μM H[cys]; between day 6 and 10; 1% serum. As for the experimental part: FIGS. 5A and 5B are graphs illustrating cell growth and DNA synthesis of N-VSMC cultures. (A) Cells were cultured in M199 supplemented with 1% FBS in the presence and absence of 100 μM H[cys]. The medium was renewed every three days and cell numbers were determined by Coulter counter or emocytometer. Each point represents the mean of quadruplicate samples counted six times. (B) Cells were grown to confluency, growth arrested in M199 and 1 μg/ml of bovine serum albumin for two days. Cultures were exposed to various concentrations of H[cys] (0.01-1000 μM) for 30 h, pulse labeled for 6 h with 2 μCi/ml of [^3H]thymidine. The amount of [^3H]thymidine incorporation was determined by scintillation spectrophotometry. Results are shown as the mean of ±S.E.M.
FIGS. 7A-7C are graphs illustrating the effect of H[cys] on diacylglycerol content in N-VSMC. (A) Time course of changes of membrane diacylglycerol content cell treated with 100μM H[cys] for the various times. Cells were recovered, membrane lipids extracted and diacylglycerol amounts determined as described in Methods. Results are expressed as the mean ± standard error of quadruplicate incubations from six independent experiments. (B) Effects of varying concentrations of H[cys] on diacylglycerol synthesis. Cells were treated for 30 min with different concentrations of H[cys] and membrane lipids were isolated and the diacylglycerol content determined. (C) Effect of PKC inhibitors on H[cys] mediated cell proliferation. N-VSMC cultures were grown in 1% FBS and 100 μM H[cys] in the presence and absence of staurosporine and cheleyrithrine chloride for the times (days-d) indicated. Cells were counted in quadruplicate in a Coulter counter every three days. Values represent the mean ±S.D. from four independent experiments.
Smooth Muscle Culture: The thoracic (N) and abdominal (M) aorta of normal 16 and 18-day embryos were cleaned of fat, and the intima-media was isolated from the adventitia. The intima-media was enzymatically dispersed into a single cell suspensions by a combination of collagenase and elastase followed by trypsin. VSMC were placed in primary culture at a constant density of 2×10^4 cells/cm^2 in multiwell plates or 100 mm culture plates in Medium 199 supplemented with 10% fetal bovine serum (FMS) and 2 mM glutamine, in an atmosphere of 95% air: 5% Co2 at 37° C. Primary cultures were grown for 7 days before they were seeded into first passage at the same cell density and grown to confluence. Experiments were carried out between passages 3-6. Experimental conditions for all cells included 48 h in Medium 199 supplemented with 1% FBS prior to initiating and experiment.

The subject of the next assay is c-fos. Put plainly: c-fos mRNA in N-VSMC (RNA blot). The class given is cell-based, chicken. The procedure:
FIGS. 3A, 3B and 3C are RNA blot analyses of c-fos and c-myb mRNA isolated from N-VSMC cultures. Cultures were incubated in the absence and presence of 200μM H[cys] for 0, (lane 1); 15 min, (lane 2); 30 min, (lane 3); 45 min, (lane 4) and 60 min, (lane 5); and analyzed for c-fos expression. In FIG. 3B, the time course of c-myb MRNA induction in the presence of 200μM H[cys] for 0 h, (lane 1); 8 h, (lane 2); 16 h, (lane 3); 24 h, (lane 4). The c-fos transcripts were analyzed by northern blot and normalized to β actin expression. The amount of c-myb mRNA levels were normalized to estrogen receptor (ER) transcripts as determined by RT-PCR. […] The amount of c-myb mRNA levels were normalized to estrogen receptor (ER) transcripts as determined by RT-PCR. The amount of specific radiolabeling in the autoradiograph was quantified by scanning densitometry. The size of the c-Myb protein is 75 kilodaltons. The 75 kilodalton band is defined as c-Myb because immunoprecipitation of this protein was not detected in the presence of synthetic polypeptide [[…] encoded by sequences 1080-1133].
RNA Blot Analysis: Total RNA was isolated from VSMC derived from thoracic and abdominal aorta by homogenization, and lysis with guanidinium isothiocyanate was followed by phenol-chloroform extraction. […]

For the next assay, the system named is TA-VSMCs. Nature of the assay: [3H]thymidine labeling (DNA synthesis) in TA-VSMCs. It is filed as cell-based. The note with it: 0.1 to 1 mM. The text has this: Effect of calcium channel activation on DNA synthesis. Effect of glutamate receptor calcium channels and L-type calcium channels activation was examined by measuring [^3H]thymidine labeling.

Regarding `N[C@@H](CCS)C(=O)O` [homocysteine], the “delay in PDGG-AA release” value with PDGG-AA is “not observed”. The mitogenic response entry in the assay with Rabbit aortic cells was “robust mitogenic response”. Moreover, the cell number increased in the assay on N-VSMC worked out at 9 fold. In the assay with c-fos (200 μM homocysteine), the “c-fos mRNA transcripts induced” value was 15 fold. Further, the c-fos induction entry in the assay with c-fos (neural crest derived smooth muscle cells) is reported as “induced”. In the assay with TA-VSMCs, this compound had a DNA synthesis increased of 6 fold.
